{
  "source": "patent US20050245577A1",
  "about": "“Drug for kidney failure containing oxaluric acid derivative” (priority 2002, published 2005)",
  "system": "SD-strain rats",
  "assay": "Single dose toxicity test",
  "assay_type": "in vivo",
  "conditions": "intravenous single dose 75 to 600 mg/kg, even at 600 mg/kg, 5 males and 5 females",
  "procedure": "5-Methyloxaluric acid was intravenously administered to SD-strain rats (6 weeks age, 5 males and 5 females) at the dose of 75 to 600 mg/kg.",
  "data": [
    {"smiles": "CNC(=O)NC(=O)C(=O)O", "note": "[5-Methyloxaluric acid, 5-methyloxaluric acid]", "values": [
      {"measurement": "death", "value": "no death"}
    ]}
  ]
}
